The values below come from US20210078972A1, “QUINOLINE OR QUINAZOLINE COMPOUND AND APPLICATION THEREOF” (HAIHE BIOPHARMA CO., LTD., priority 2018, published 2021).

SMILES strings stand for the structures.

One test addresses T1, AXL kinase (Homo sapiens, UniProt P30530).
T1 construct: purchased eurofins 14-500
T1 sequence (P30530 473-894 limits assumed): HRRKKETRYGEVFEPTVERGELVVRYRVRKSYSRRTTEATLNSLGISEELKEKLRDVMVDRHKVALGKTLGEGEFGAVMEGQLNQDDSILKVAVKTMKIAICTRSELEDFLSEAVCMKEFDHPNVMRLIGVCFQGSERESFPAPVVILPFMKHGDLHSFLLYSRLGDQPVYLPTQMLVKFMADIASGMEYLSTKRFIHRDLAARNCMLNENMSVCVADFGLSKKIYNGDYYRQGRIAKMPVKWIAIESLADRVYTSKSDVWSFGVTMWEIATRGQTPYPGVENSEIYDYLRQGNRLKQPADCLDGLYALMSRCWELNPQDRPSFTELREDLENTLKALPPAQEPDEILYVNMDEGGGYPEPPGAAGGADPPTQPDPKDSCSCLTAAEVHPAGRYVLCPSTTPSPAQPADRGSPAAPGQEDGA
The test can be described thus: AXL kinase inhibition, Z'-LYTE FRET. The settings on record: ATP 50 μM. It is filed as biochemical. The text has this:
Detection of the activity of kinase: the inhibitory activities of the compounds against AXL kinase (eurofins, 14-500) were detected through a second-order reaction by the Z′-LYTE™ technology (detected by fluorescence, enzyme-coupled form, based on the difference in a sensitivity of phosphorylated and non-phosphorylated polypeptides to proteolytic cleavage), based on the principle of fluorescence resonance energy transfer (FRET), using Z′-LYTE™ FRET peptide substrate (Z′-LYTE™ Tyrosine 6 Peptide Substrate, Invitrogen, PV4122).
Enzymatic reaction: To a 384-well plate was added 5 μL of enzyme-substrate system (50 mM HEPES, pH 6.5, 0.01% BRU-35, 10 mM MgC2, 1 mM EGTA, 0.02% NaNA), and 5 nL of a compound (concentration gradient) was transferred thereto using an echo520 ultramicro-liquid pipetting system. After the plate was shaken at room temperature for 10-20 min, 25 nL of ATP (a final concentration of 50 μM) was transferred thereto using the echo520 ultramicro-liquid pipetting system. After shaking and well mixing, the mixture was centrifuged and reacted at 30° C. in the dark for 1.5 h.
The data analysis method is as follows:
Phosphorylation ratio=1−{(emission ratio×F100%−C100%)/[C0%−C100%+emission ratio×(F100%−F0%)]}×100;
Inhibition rate=100×(1−compound phosphorylation ratio/negative control phosphorylation ratio).
The IC50 values were calculated by GraphPad Prism software.
Regarding `CCCOc1cc2ncnc(Oc3ccc(NC(=O)c4c(C)n(C)c5ccc(OC(F)(F)F)cc5c4=O)cc3F)c2cc1OC` [TL-240, N-(3-fluoro-4-((6-methoxy-7-propoxyquinazolin-4-yl)oxy)phenyl)-1,2-dimethyl-4-oxo-6-(trifluoromethoxy)-1,4-dihydroquinoline-3-carboxamide], the IC50 came to 6.1 nM.

`COc1cc2c(Oc3ccc(NC(=O)c4c(C)n(C)c5ccc(OC(F)(F)F)cc5c4=O)cc3F)ncnc2cc1OCCC(C)C` [TL-230, N-(3-fluoro-4-((7-(isopentyloxy)-6-methoxyquinazolin-4-yl)oxy)phenyl)-1,2-dimethyl-4-oxo-6-(trifluoromethoxy)-1,4-dihydroquinoline-3-carboxamide]: the IC50 stood at 59.4 nM.

`COc1cc2c(Oc3ccc(NC(=O)c4c(C)n(C)c5ccc(OC(F)(F)F)cc5c4=O)cc3F)ncnc2cc1OCCN(C)C` [TL-233, N-(4-((7-(2-(dimethylamino)ethoxy)-6-methoxyquinazolin-4-yl)oxy)-3-fluorophenyl)-1,2-dimethyl-4-oxo-6-(trifluoromethoxy)-1,4-dihydroquinoline-3-carboxamide] showed an IC50 of 1.9 nM.

Regarding `COc1cc2c(Oc3ccc(NC(=O)c4c(C)n(C)c5ccc(OC(F)(F)F)cc5c4=O)cc3F)ncnc2cc1OCCCN1CCCCC1` [TL-216, N-(3-fluoro-4-((6-methoxy-7-(3-(piperidin-1-yl)propoxy)quinazolin-4-yl)oxy)phenyl)-1,2-dimethyl-4-oxo-6-(trifluoromethoxy)-1,4-dihydroquinoline-3-carboxamide], the IC50 worked out at 1.5 nM.

In turn, `COc1cc2c(Oc3ccc(NC(=O)c4c(C)n(C)c5ccc(OC(F)(F)F)cc5c4=O)cc3F)ncnc2cc1OCCN1CCCC1` [TL-231, N-(3-fluoro-4-((6-methoxy-7-(2-(pyrrolidin-1-yl)ethoxy)quinazolin-4-yl)oxy)phenyl)-1,2-dimethyl-4-oxo-6-(trifluoromethoxy)-1,4-dihydroquinoline-3-carboxamide] came in with an IC50 of 2.3 nM.

Compound `CCOc1cc2ncnc(Oc3ccc(NC(=O)c4c(C)n(C)c5ccc(OC(F)(F)F)cc5c4=O)cc3F)c2cc1OC` [TL-241, N-(4-((7-ethoxy-6-methoxyquinazolin-4-yl)oxy)-3-fluorophenyl)-1,2-dimethyl-4-oxo-6-(trifluoromethoxy)-1,4-dihydroquinoline-3-carboxamide] had an IC50 of 2.6 nM.

The next test deals with MV4-11 cells. As to the kind of experiment: MV4-11 cell proliferation, CCK-8. It is filed as cell-based. The settings on record: Homo sapiens, 72 h, read-out: IC50 of inhibition of proliferation of MV4-11 cells. How it is done: The inhibitory effects of the compounds on the proliferation of MV4-11 cells were detected by a CCK-8 cell counting kit (Dojindo). The specific steps are as follows: MV4-11 cells in the logarithmic phase were seeded into a 96-well culture plate at a suitable density for 90 μL per well. After overnight cultivation, the compounds at different concentrations were added to act for 72 hr, and a solvent control group was set (negative control). After 72 h of the compounds acting on the cells, the effects of the compounds on cell proliferation were detected using the CCK-8 cell counting kit (Dojindo). 10 μL of CCK-8 reagent was added to each well and the plate was placed in an incubator at 37° C. for 2-4 hours. After that, a full-wavelength microplate enzyme-labeling instrument SpectraMax 190 was used to read with a measurement wavelength of 450 nm.
The inhibition rate (%) of the compound on tumor cell growth was calculated by the following formula:
Inhibition rate (%)=(OD control well−OD administration well)/OD control well×100%
The IC50 values were obtained by regression with the four-parameter method using the software attached to the enzyme-labeling instrument.
Regarding `CC(C)(C)c1cc(NC(=O)Nc2ccc(-c3cn4c(n3)sc3cc(OCCN5CCOCC5)ccc34)cc2)no1` [AC220, reference compound], the IC50 was below 4 nM.
